Assays:
[1] = Changes in carcinoid syndrome symptoms, body weight and ECOG Performance Status after TE initiation (TELEACE); format: in vivo, human
Excerpt: Time to tumor progression was defined as the time from telotristat ethyl initiation to the first documented tumor progression in the medical chart. […] Progression-free survival (PFS) was defined as the time from telotristat ethyl initiation to tumor progression or death. […] Physician-assessed changes in body weight, Eastern Cooperative Oncology Group (ECOG) Performance Status, and CS symptoms including diarrhea, flushing, abdominal pain, nausea and ascites were abstracted from medical charts before and after telotristat ethyl initiation. In order to evaluate the effect of telotristat ethyl treatment on secondary clinical outcomes, analyses were conducted in the overall population and in a subgroup of patients who had the same documented non-telotristat ethyl neuroendocrine tumor treatment before and after telotristat ethyl initiation. Descriptive statistics summarized patient demographic and clinical characteristics, and changes in body weight and ECOG Performance Status after telotristat ethyl treatment initiation. Kaplan-Meier analyses estimated median time to tumor progression and median PFS. Chi-square test evaluated changes in documented CS symptoms (improved vs same/worsened) before and after telotristat ethyl initiation. All analyses were performed using SAS version 9.4 (SAS Institute, Cary, N.C., USA). To evaluate the change in CS symptoms, weight, and ECOG performance status between the pre- and post-TE periods, patients with documented CS symptoms (i.e., abdominal pain, ascites, diarrhea, flushing, nausea) pre-TE initiation were described using proportions and frequencies. The change in documented CS symptoms, weight, and ECOG performance status after TE Initiation (i.e., improved/increased, stayed the same/remained unchanged, worsened/decreased) were also described using proportions and frequencies. P-values were calculated using Chi-square test for equal proportions for change in CS symptoms (i.e., proportion of patients with improved vs. stayed the same/worsened CS symptoms).

[2] = test system: CgA; test: Biomarker changes after TE initiation (TELEACE): CgA; format: in vivo, human; conditions: n=15
Protocol: This example provides the effects of telotristat ethyl treatment on selected patient biomarkers (i.e., u5-HIAA; CgA; 5-HT; and NT-proBNP) in the retrospective, single arm study of Example 4.
The average (SD) duration of documented TE treatment was 12.0 (7.3) months with a median (IQR) of 9.0 (6.8, 15.2) months. In many cases, a patient received a TE dosage of 250 mg three times per day.
Patients with reported biomarker values below, at, or above normal range in pre-TE and post-TE initiation periods were described using proportions and frequencies. The biomarkers were assessed only among patients with complete biomarker assessment results in both pre-TE and post-TE initiation periods. McNemar's test was used to calculate P-values for the differences in paired proportions of patients with values above the upper limit of normal.
For the biomarker results below, the pre-TE initiation period is defined as 12 months before the index date (initiation of TE). The assessment closest to the index date during the pre-TE period was reported for each biomarker.
The post-TE initiation period is defined as a period from index date to the earlier of end of treatment with TE or date of chart abstraction. The assessment closest to the date of chart abstraction during the post-TE period was reported for each biomarker.
The data includes patients with reported biomarker values, units, and laboratory ranges during pre- and post-TE initiation periods. It excludes patients who had different biomarker units or laboratory ranges reported pre- and post-TE initiation.
The normal range was defined by reported laboratory lower limit of normal and upper limit of normal.
McNemar's test could not be performed because all patients had CgA value above normal range pre-TE initiation.

CCOC(=O)[C@@H](N)Cc1ccc(-c2cc(O[C@H](c3ccc(Cl)cc3-n3ccc(C)n3)C(F)(F)F)nc(N)n2)cc1 [telotristat ethyl, (S)-ethyl 2-amino-3-(4-(2-amino-6-((R)-1-(4-chloro-2-(3-methyl-1H-pyrazol-1-yl)phenyl)-2,2,2-trifluoroethoxy)pyrimidin-4-yl)phenyl)propanoate]
Body weight and ECOG Performance Status after telotristat ethyl ([1]; overall population and same NET treatment subgroup): improved or unchanged for most patients
patients with improvement in nausea after TE initiation ([1]; overall population, n=41): 78%
patients with improvement in abdominal pain after TE initiation ([1]; overall population, n=69): 81%
patients with improvement in flushing after TE initiation ([1]; overall population, n=88): 81%
patients with improvement in diarrhea after TE initiation ([1]; overall population, n=133): 85%
patients with CgA above normal range pre-TE who had normal CgA value post-TE initiation [2]: ~30%
CgA At normal range Post-TE, n (%) ([2]; pre-TE 0 (0)): 4 (26.7) n (%)
CgA Below normal range Post-TE, n (%) ([2]; pre-TE 0 (0)): 0 (0) n (%)
CgA Above normal range Post-TE, n (%) ([2]; pre-TE 15 (100.0)): 11 (73.3) n (%)

From patent US20210353624A1, “METHOD OF TREATING CANCER WITH TELOTRISAT OR A PRODRUG THEREOF” (TerSera Therapeutics LLC, priority 2020, published 2021)
